In US9232799B2, “N-[(het)arylethyl)] pyrazole(thio)carboxamides and their heterosubstituted analogues” (BAYER INTELLECTUAL PROPERTY GMBH, priority 2010, dated 2016):

Tests used:
Fusarium graminearum = assay: microbe, parasite or virus in culture; format: cell-based; conditions: for inhibition at 50 µM: Fusarium graminearum, 168 h, read-out: % Inhibition of fungal growth at 50 μM
Puccinia triticina = assay: In vivo preventive test on Puccinia triticina (wheat); conditions: evaluated 8 days after inoculation; for Efficacy: dose 500 ppm of active ingredient
Pyrenophora teres = assay: In vivo preventive test on Pyrenophora teres (barley); conditions: 500 ppm of active ingredient, evaluated 7-9 days after inoculation
Text: One day after this treatment, the plants are inoculated with an aqueous spore suspension of Pyrenophora teres.

Uromyces appendiculatus = assay: In vivo preventive test on Uromyces appendiculatus (beans); conditions: 100 ppm of active ingredient, evaluated 10 days after inoculation
Leptosphaeria nodorum = assay: In vivo preventive test on Leptosphaeria nodorum (wheat); conditions: 500 ppm of active ingredient, evaluated 7-9 days after inoculation
Text: One day after this treatment, the plants are inoculated with an aqueous spore suspension of Leptosphaeria nodorum.

aflatoxines production = assay: microbe, parasite or virus in culture; format: cell-based, Aspergillus parasiticus; conditions: for inhibition at 50 µM: Aspergillus parasiticus, 168 h, read-out: % Inhibition of Aflatoxin at 50 μM
Venturia inaequalis = assay: In vivo preventive test on Venturia inaequalis (apple scab); conditions: 100 ppm of active ingredient, evaluated 10 days after inoculation
Alternaria solani = assay: In vivo preventive test on Alternaria solani (tomato); conditions: 500 ppm of active ingredient, evaluated 7 days after inoculation
Text: One day after this treatment, the plants are inoculated with an aqueous spore suspension of Alternaria solani.

Sphaerotheca fuliginea = assay: In vivo preventive test on Sphaerotheca fuliginea (cucumber); conditions: 500 ppm of active ingredient, evaluated 7 days after inoculation
Text: One day after this treatment, the plants are inoculated with an aqueous spore suspension of Sphaerotheca fuliginea.

Botrytis cinerea = assay: In vivo preventive test on Botrytis cinerea (beans); conditions: preventive, beans, lesion size 2 days after inoculation; for Efficacy / pest or weed control at 100 ppm: 100 ppm of active ingredient
Text: To test for preventive activity, young plants are sprayed with the preparation of active compound. After the spray coating has dried on, 2 small pieces of agar covered with growth of Botrytis cinerea are placed on each leaf.

Septoria tritici = assay: In vivo preventive test on Septoria tritici (wheat); conditions: 500 ppm of active ingredient, evaluated 21 days after inoculation
Text: (§1) To test for preventive activity, young plants are sprayed with the preparation of active compound or active compound combination at the stated rate of application.

[1] = test system: Fusarium nivale (var. majus); assay: In vivo curative test on Fusarium nivale (wheat); conditions: 500 ppm of active ingredient, evaluated 5 days after inoculation
[2] = test system: Fusarium nivale (var. majus); assay: In vivo preventive test on Fusarium nivale (wheat); conditions: 500 ppm of active ingredient, evaluated 5 days after inoculation
Text: as §1

[3] = logP by HPLC on reversed-phase column (C 18), EEC Directive 79/831 Annex V.A8; format: physicochemical
Description: In table 1, the logP values were determined in accordance with EEC Directive 79/831 Annex V.A8 by HPLC (High Performance Liquid Chromatography) on a reversed-phase column (C 18), using the method described below: Temperature: 40° C.; […]

[4] = test system: Blumeria graminis f.sp. hordei; assay: In vivo preventive test on Blumeria graminis (barley); conditions: 500 ppm of active ingredient, evaluated 7 days after inoculation
Text: as §1

Cochliobolus miyabeanus = assay: In vivo protective test on Cochliobolus miyabeanus (rice); conditions: evaluated 4 days after inoculation; for Efficacy (protection): protective, 10 ppm of active ingredient (lowest of 250, 100, 50 and 10 ppm)
[5] = dose 10 ppm of active ingredient
[6] = dose 50 ppm of active ingredient
[7] = dose 100 ppm of active ingredient
[8] = dose 250 ppm of active ingredient
[9] = Botrytis cinerea, 48 h, read-out: Efficacy

SMILES | % Inhibition of fungal growth at 50 μM (Fusarium graminearum) [%] | Efficacy (Pyrenophora teres) [%] | Efficacy (Uromyces appendiculatus) [%] | Efficacy (Leptosphaeria nodorum) [%] | % Inhibition of Aflatoxin at 50 μM (aflatoxines production) [%] | Efficacy (Venturia inaequalis) [%] | Efficacy (Alternaria solani) [%] | Efficacy (Sphaerotheca fuliginea) [%] | Efficacy (Botrytis cinerea) [%] | Efficacy (Septoria tritici) [%] | Efficacy [2] [%] | logP [3] | Efficacy [4] [%] | Efficacy (Cochliobolus miyabeanus; [8]) [%] | other results
COC(CN(C(=O)c1c(C(F)F)nn(C)c1F)C1CC1)c1ccc(Cl)cc1Cl (centres unmarked) [Example 80] | 100 | 100 | 80 | 100 | 100 | 100 | 95 | 100 | 100 |  |  |  |  |  | Efficacy (Puccinia triticina): 80%
CCOC(c1ccc(Cl)cc1Cl)C(C)NC(=O)c1c(C(F)F)nn(C)c1Cl (mixture of isomers) [Example 82] | 100 | 100 |  |  | 100 | 100 | 95 | 95 | 98 | 100 |  |  |  |  | Efficacy [1]: 100%
CC(Cc1c(F)cccc1Cl)N(C(=O)c1c(C(F)F)nn(C)c1F)C1CC1 (centres unmarked) [Example 120] | 100 | 100 | 100 | 100 | 100 | 100 | 100 | 100 | 94 | 100 | 100 | 3.76 | 94 |  | Efficacy (Puccinia triticina): 70%
COC(c1ccc(Cl)cc1Cl)C(C)NC(=O)c1c(C(F)F)nn(C)c1F (centres unmarked) [Example 73, N-[1-(2,4-dichlorophenyl)-1-methoxypropan-2-yl]-3-(difluoromethyl)-5-fluoro-1-methyl-1H-pyrazole-4-carboxamide] |  | 100 |  |  |  | 100 | 100 | 100 |  | 100 | 88 | 3.75 | 100 | 98 | inhibition at 50 µM (Fusarium graminearum): 100%; inhibition at 50 µM (aflatoxines production): 100%; chromatographic logP [3]: 3.65; Efficacy (Cochliobolus miyabeanus; [5]): 65%; Efficacy (Cochliobolus miyabeanus; [6]): 92%; Efficacy (Cochliobolus miyabeanus; [7]): 97%; Efficacy (protection) (Cochliobolus miyabeanus): at least 65%; pest or weed control at 100 ppm (Botrytis cinerea; [9]): 99%
COC(c1ccc(Cl)cc1Cl)C(C)NC(=O)c1cn(C)nc1C(F)F (centres unmarked) [1.14 from WO-2008/148570, N-[1-(2,4-dichlorophenyl)-1-methoxypropan-2-yl]-3-(difluoromethyl)-1-methyl-1H-pyrazole-4-carboxamide, reference compound] |  |  |  |  |  |  |  |  |  |  |  |  |  | 98 | Efficacy (Cochliobolus miyabeanus; [5]): 20%; Efficacy (Cochliobolus miyabeanus; [6]): 80%; Efficacy (Cochliobolus miyabeanus; [7]): 92%; Efficacy (protection) (Cochliobolus miyabeanus): less than 20%
CC(Cc1c(Cl)cccc1Cl)N(C(=O)c1c(C(F)F)nn(C)c1F)C1CC1 (centres unmarked) [Example 115] | 100 | 100 | 98 | 95 | 100 | 100 | 100 | 100 | 93 |  | 100 | 4.06 | 100 |  | Efficacy (Puccinia triticina): 90%
COC(CNC(=O)c1c(C(F)F)nn(C)c1Cl)c1cc(Cl)cc(Cl)c1 (centres unmarked) [Example 106] | 69 | 90 |  |  | 89 |  |  |  |  | 71 |  | 3.55 |  |  | Efficacy [1]: 93%
CC(Cc1ncc(C(F)(F)F)cc1Cl)N(C(=O)c1c(C(F)F)nn(C)c1F)C1CC1 (centres unmarked) [Example 188, N-{1-[3-chloro-5-(trifluoromethyl)pyridin-2-yl]propan-2-yl}-N-cyclopropyl-3-(difluoromethyl)-5-fluoro-1-methyl-1H-pyrazole-4-carboxamide] |  | 100 | 98 | 100 |  | 100 | 100 | 100 |  | 100 | 100 |  | 100 | 80 | inhibition at 50 µM (Fusarium graminearum): 100%; Efficacy (Puccinia triticina): 90%; Efficacy (protection) (Puccinia triticina; preventive, 500 ppm of active ingredient): greater than 90%; inhibition at 50 µM (aflatoxines production): 100%; chromatographic logP [3]: 3.8; pest or weed control at 100 ppm (Botrytis cinerea; [9]): 98%; pest or weed control at 500 ppm (Botrytis cinerea; Botrytis cinerea, 48 h, 500 ppm of active ingredient, read-out: Efficacy): > 95%
CC(Cc1cccc(Cl)c1)NC(=O)c1c(C(F)F)nn(C)c1F (centres unmarked) [Example 50] | 100 | 100 |  |  | 100 |  | 100 |  |  |  |  | 3.02 |  | 90 | 
CC(Cc1cc(Cl)ccc1Cl)NC(=O)c1c(C(F)F)nn(C)c1F (centres unmarked) [Example 92] | 100 | 100 |  |  | 100 |  | 100 | 88 |  |  |  | 3.37 |  | 90 | 
CC(CN(C(=O)c1c(C(F)F)nn(C)c1F)C1CC1)c1ccccc1 (centres unmarked) [Example 13] | 100 | 100 |  | 100 | 100 |  | 95 |  |  | 93 |  | 3.17 | 100 |  | Efficacy [1]: 93%
Cn1nc(C(F)F)c(C(=O)NCCc2ncc(C(F)(F)F)cc2Cl)c1F [Example 187] | 100 | 100 | 96 |  | 100 | 100 | 100 |  | 100 | 100 |  | 2.75 | 94 | 85 | 
Cn1nc(C(F)F)c(C(=O)N(CCc2ccccc2)C2CC2)c1F [Example 11] | 100 | 100 |  | 95 | 100 |  | 95 | 83 |  | 100 |  | 2.88 | 100 |  | Efficacy [1]: 100%
Cn1nc(C(F)F)c(C(=O)NCCc2ccc(Cl)cc2Cl)c1F [Example 65] | 100 | 100 | 100 |  | 100 | 100 | 90 | 79 |  | 100 |  | 3.09 | 95 |  | 
Cn1nc(C(F)F)c(C(=O)NCCc2ccc(Cl)cc2Cl)c1Cl [Example 66] | 100 |  | 98 |  | 100 | 100 |  |  |  | 71 | 100 | 3.31 | 90 |  | 
CC(Cc1c(F)cccc1F)N(C(=O)c1c(C(F)F)nn(C)c1F)C1CC1 (centres unmarked) [Example 26] | 99 | 100 |  | 95 | 100 |  | 100 | 86 |  | 100 |  | 3.42 | 100 |  | Efficacy (Puccinia triticina): 90%; Efficacy [1]: 100%
CC(Cc1ccc(Cl)cc1)N(C(=O)c1c(C(F)F)nn(C)c1F)C1CC1 (centres unmarked) [Example 55] | 100 | 100 | 96 | 95 | 100 | 100 | 95 | 100 | 100 | 100 | 100 | 3.73 | 100 |  | 
